Assays:
LXRα = LXRα (Homo sapiens (Human), UniProt Q13133); assay: LXR luciferase transcriptional reporter gene assay, Gal4-LXRα LBD in HEK293 cells; type: cell-based; settings: pG5-Luc luciferase reporter, 16 h, read-out: LXRα CELL EC50
Experimental: (§2) The LXR luciferase transcriptional reporter gene assay measures the ability of LXR ligands to promote transcriptional activation via the ligand binding domain (LBD) of LXR. […] 90% confluent cells from a 150 mm dish were seeded in six 100 mm dishes. The cells were batch-transfected with an expression plasmid containing the Gal4 DNA binding domain fused to either the LBD of LXRα or LXRβ and a luciferase reporter plasmid pG5-Luc (Promega, Madison, Wis.), which has Gal4 response elements upstream of firefly luciferase gene (luc+). […] Five h following transfection, 15 mL of 10% charcoal-treated FBS (Hyclone, #SH30070.03) in DMEM were added to the transfected dishes without removing transfection media, and then incubate the cells at 37° C. overnight. The next day, the cells from the transfected dish were trypsinized, washed with PBS, resuspended in 10% charcoal-treated DMEM media and plated into 96-well plates with 60,000 cells/100 μL per well. The cells were incubated at 37° C. for ˜4 h before addition of 100 μL of test compound or control ligand at different concentrations (final DMSO concentration at 0.2%). Following incubation of the cells for 16 h with substances, the culture media were dumped and Bright-Glo™ luciferase reagent (Promega, Cat. #E2610) was added to lyse the cells and initiate the luciferase reaction. Luminescence, as a measure of luciferase activity, was detected in a plate reader (Victor2, PE-Wallac). Transcriptional activation in the presence of a test substance was expressed as fold-change in luminescence compared to that of cells incubated in the absence of the substance. EC50 values were calculated using the XLfit™ program (IDBS, Guilford, UK).

[1] = target: LXRβ ligand binding domain (LBD) (Homo sapiens (Human), UniProt P55055); assay: LXR β radioligand binding assay (SPA, [3H]TO901317 competition); settings: for selectivity for the LXRβ subtype over the LXRα subtype: LXRβ versus LXRα, statement in the summary
Experimental: (§1) Poly-lysine SPA beads (50 μg) were added to each well and the total volume was adjusted to 120 μL. The plates were shaken on an orbital shaker for 20 min and then allowed to settle for 10 more minutes at rt before a brief centrifugation at 2,000 rpm for 1 min.

LXRβ = LXRβ (Homo sapiens (Human), UniProt P55055); assay: LXR luciferase transcriptional reporter gene assay, Gal4-LXRβ LBD in HEK293 cells; type: cell-based; settings: pG5-Luc luciferase reporter, 16 h, read-out: LXRβ CELL EC50
Experimental: as §2

[2] = target: LXRα ligand binding domain (LBD) (Homo sapiens (Human), UniProt Q13133); assay: LXR α radioligand binding assay (SPA, [3H]TO901317 competition)
Experimental: as §1

Chain of LXRα ligand binding domain (LBD) (Q13133 209-447): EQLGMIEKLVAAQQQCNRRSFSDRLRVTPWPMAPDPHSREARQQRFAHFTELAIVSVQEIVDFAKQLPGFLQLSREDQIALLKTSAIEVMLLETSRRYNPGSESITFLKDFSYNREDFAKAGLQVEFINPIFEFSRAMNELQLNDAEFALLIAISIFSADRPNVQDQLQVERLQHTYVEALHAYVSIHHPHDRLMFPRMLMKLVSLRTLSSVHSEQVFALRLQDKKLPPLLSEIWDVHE
Chain of LXRα (Q13133 209-447): as above
Chain of LXRβ ligand binding domain (LBD) (P55055 222-460): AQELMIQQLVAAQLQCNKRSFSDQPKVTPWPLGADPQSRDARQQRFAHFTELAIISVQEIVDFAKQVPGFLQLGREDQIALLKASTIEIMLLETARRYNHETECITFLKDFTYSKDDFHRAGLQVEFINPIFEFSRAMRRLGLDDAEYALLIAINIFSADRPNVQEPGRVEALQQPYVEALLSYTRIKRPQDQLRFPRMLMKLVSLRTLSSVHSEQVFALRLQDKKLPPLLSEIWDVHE
Chain of LXRβ (P55055 222-460): as above

Compound	EC50 (LXRα)	Ki [1]	EC50 (LXRβ)	Ki [2]	selectivity for the LXRβ subtype over the LXRα subtype [1]
CC(C)C1c2nc3ccc(S(C)(=O)=O)cc3n2CCN1c1nccc(C(F)(F)F)n1 (centres unmarked) [Compound E1, 1-isopropyl-7-(methylsulfonyl)-2-(4-(trifluoromethyl)pyrimidin-2-yl)-1,2,3,4-tetrahydrobenzo[4,5]imidazo[1,2-a]pyrazine]	3370 nM	256 nM	313 nM	1770 nM	–
CC(C)[C@H]1c2cc3ccc(S(C)(=O)=O)cc3n2CCN1c1nccc(C(F)(F)F)n1 (single isomer, unassigned) [Compound E3b, 1-isopropyl-7-(methylsulfonyl)-2-(4-(trifluoromethyl)pyrimidin-2-yl)-1,2,3,4-tetrahydropyrazino[1,2-a]indole]	> 20000 nM	–	–	> 3330 nM	–
CC(C)[C@@H]1c2cc3ccc(S(C)(=O)=O)cc3n2CCN1c1nccc(C(F)(F)F)n1 (single isomer, unassigned) [Compound E3a, 1-isopropyl-7-(methylsulfonyl)-2-(4-(trifluoromethyl)pyrimidin-2-yl)-1,2,3,4-tetrahydropyrazino[1,2-a]indole]	1100 nM	–	–	398 nM	–
CC(C)[C@H]1c2nc3cc(CO)c(S(C)(=O)=O)cc3n2CCN1c1nccc(C(F)(F)F)n1 (single isomer, unassigned) [Compound E2b]	17300 nM	> 2500 nM	6940 nM	> 3330 nM	–
CC(C)[C@@H]1c2nc3cc(CO)c(S(C)(=O)=O)cc3n2CCN1c1nccc(C(F)(F)F)n1 (single isomer, unassigned) [Compound E2a]	340 nM	20 nM	13 nM	318 nM	selective for the LXRβ subtype over the LXRα subtype

The next lines start with results.

EC50 (LXRα)	Ki [1]	EC50 (LXRβ)	Ki [2]	Compound	selectivity for the LXRβ subtype over the LXRα subtype [1]
163 nM	4 nM	10 nM	43 nM	CC(C)[C@@H]1c2cc3cc(CO)c(S(C)(=O)=O)cc3n2CCN1c1nccc(C(F)(F)F)n1 (single isomer, unassigned) [Compound E4a, (1-isopropyl-7-(methylsulfonyl)-2-(4-(trifluoromethyl)pyrimidin-2-yl)-1,2,3,4-tetrahydropyrazino[1,2-a]indol-8-yl)methanol]	selective for the LXRβ subtype over the LXRα subtype
> 20000 nM	846 nM	> 20000 nM	> 3330 nM	CC(C)[C@H]1c2cc3cc(CO)c(S(C)(=O)=O)cc3n2CCN1c1nccc(C(F)(F)F)n1 (single isomer, unassigned) [Compound E4b, (1-isopropyl-7-(methylsulfonyl)-2-(4-(trifluoromethyl)pyrimidin-2-yl)-1,2,3,4-tetrahydropyrazino[1,2-a]indol-8-yl)methanol]	–

— patent publication US9006244B2, “Liver X receptor modulators” (priority 2012, dated 2015)
